{"source": "patent US20050215646A1", "about": "“Methods for treating multiple sclerosis and pharmaceutical compositions therefor” (Renovis, Inc., priority 2004, published 2005)", "assay_type_in_all_cases": "cell-based", "key": {"FMLP receptor": {"biological_target": "T1, FMLP receptor (Homo sapiens, UniProt P21462)", "T1 construct": "cDNA fragments encompassing chemokine receptor coding regions; expressed in transfected cells; host or cells: CHO-K1 (ATCC CCL-61), transient transfection", "T1 sequence (P21462 1-350)": "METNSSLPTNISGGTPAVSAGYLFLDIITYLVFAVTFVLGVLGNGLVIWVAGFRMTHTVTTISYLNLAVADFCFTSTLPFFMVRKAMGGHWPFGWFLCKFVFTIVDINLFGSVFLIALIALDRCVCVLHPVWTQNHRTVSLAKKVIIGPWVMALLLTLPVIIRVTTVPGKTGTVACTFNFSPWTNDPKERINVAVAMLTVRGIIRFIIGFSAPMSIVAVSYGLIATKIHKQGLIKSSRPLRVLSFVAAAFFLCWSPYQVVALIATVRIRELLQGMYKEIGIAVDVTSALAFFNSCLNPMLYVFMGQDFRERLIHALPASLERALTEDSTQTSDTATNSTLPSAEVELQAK", "assay": "Migration of CHO-K1 cells expressing the FMLP receptor", "conditions": "2 hours, FIG. 4", "description": "(§1) CHO-K1 cells were obtained from American Type Culture Collection (CCL-61) and cultured in Ham's F12 media supplemented with 10% heat inactivated FBS and 100 μg/ml penicillin/streptomycin. cDNA fragments encompassing chemokine receptor coding regions were obtained from cDNAs synthesized from HL-60 cells and/or human peripheral blood mononuclear cells by the polymerase chain reaction. Expression constructs of chemokine receptors were generated by cloning PCR fragments into expression vector pEF6/V5-TOPO (K9610-20, Invitrogen). Transient transfections were carried out with Fugene 6 transfection reagent (1814443, Roche Applied Science) according to the manufacturer's instructions.\n(§2) The CHO-chemokine receptor cells were used in migration assays 36 hours following transfection. In vitro migration assays were performed using a Neuroprobe Blindwell migration apparatus (AA12, Neuro Probe, Inc./16008 Industrial Drive, Gaithersburg, Md. 20877) according to the manufacturer's instructions with slight modifications. […]\n(§3) Following the migration assays, migrated cells that had adhered to the underside of the filter were quantitated according to the manufacturer's instructions. […] Stained filtered were mounted onto microscope slides and migrated cells in each well were manually counted under 40× magnification."}, "CXCR1": {"biological_target": "T2, CXCR1 (Homo sapiens, UniProt P25024)", "T2 construct": "cDNA fragments encompassing chemokine receptor coding regions; expressed in transfected cells; host or cells: CHO-K1 (ATCC CCL-61), transient transfection", "T2 sequence (P25024 1-350)": "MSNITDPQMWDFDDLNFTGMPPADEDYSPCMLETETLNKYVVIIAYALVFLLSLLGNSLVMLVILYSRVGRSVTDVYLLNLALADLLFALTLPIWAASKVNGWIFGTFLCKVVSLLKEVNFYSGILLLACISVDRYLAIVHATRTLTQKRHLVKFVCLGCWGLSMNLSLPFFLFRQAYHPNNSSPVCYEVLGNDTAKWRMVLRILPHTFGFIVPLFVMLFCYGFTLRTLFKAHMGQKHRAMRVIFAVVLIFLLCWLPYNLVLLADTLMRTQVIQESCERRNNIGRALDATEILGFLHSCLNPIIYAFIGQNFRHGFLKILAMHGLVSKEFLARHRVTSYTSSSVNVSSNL", "assay": "Migration of CHO-K1 cells expressing CXCR1", "conditions": "CHO-K1 cells expressing CXCR1, 2 hours; degree similar to IL-8; FIG. 3", "description": "as §1, §2, §3"}, "CXCR3": {"biological_target": "T3, CXCR3 (Homo sapiens, UniProt P49682)", "T3 sequence (P49682 1-368)": "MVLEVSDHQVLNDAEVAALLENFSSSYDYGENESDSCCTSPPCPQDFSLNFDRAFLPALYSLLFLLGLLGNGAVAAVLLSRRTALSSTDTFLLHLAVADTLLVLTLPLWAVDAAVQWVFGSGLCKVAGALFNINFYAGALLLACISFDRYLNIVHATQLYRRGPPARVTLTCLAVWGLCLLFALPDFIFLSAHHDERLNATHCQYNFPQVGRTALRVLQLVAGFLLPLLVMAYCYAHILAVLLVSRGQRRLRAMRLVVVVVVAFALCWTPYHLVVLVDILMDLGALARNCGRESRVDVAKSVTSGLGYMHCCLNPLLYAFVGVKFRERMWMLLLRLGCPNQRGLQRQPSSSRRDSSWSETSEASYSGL", "assay": "Migration of CHO-K1 cells expressing CXCR3", "design": "cDNA fragments encompassing chemokine receptor coding regions; expressed in transfected cells; host or cells: CHO-K1 (ATCC CCL-61), transient transfection", "conditions": "CHO-K1 cells expressing CXCR3, 2 hours; FIG. 3", "description": "as §1, §2, §3"}, "CXCR2": {"biological_target": "T4, CXCR2 (Homo sapiens, UniProt P25025)", "T4 construct": "cDNA fragments encompassing chemokine receptor coding regions; expressed in transfected cells; host or cells: CHO-K1 (ATCC CCL-61), transient transfection", "T4 sequence (P25025 1-360)": "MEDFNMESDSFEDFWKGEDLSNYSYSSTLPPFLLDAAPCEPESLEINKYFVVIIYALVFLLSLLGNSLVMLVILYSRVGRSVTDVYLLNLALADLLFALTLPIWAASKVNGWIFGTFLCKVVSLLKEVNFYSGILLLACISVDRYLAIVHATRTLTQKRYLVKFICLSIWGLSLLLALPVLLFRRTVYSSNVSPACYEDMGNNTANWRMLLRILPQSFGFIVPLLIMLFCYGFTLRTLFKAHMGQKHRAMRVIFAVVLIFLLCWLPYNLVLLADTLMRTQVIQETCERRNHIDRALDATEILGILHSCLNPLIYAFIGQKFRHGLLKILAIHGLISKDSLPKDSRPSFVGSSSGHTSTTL", "assay": "Migration of CHO-K1 cells expressing CXCR2", "conditions": "CHO-K1 cells expressing CXCR2, 2 hours; FIG. 3", "description": "as §1, §2, §3"}, "CXCR6": {"biological_target": "T5, CXCR6 (Homo sapiens, UniProt O00574)", "T5 construct": "cDNA fragments encompassing chemokine receptor coding regions; expressed in transfected cells; host or cells: CHO-K1 (ATCC CCL-61), transient transfection", "T5 sequence (O00574 whole entry, the tested form may be a part)": "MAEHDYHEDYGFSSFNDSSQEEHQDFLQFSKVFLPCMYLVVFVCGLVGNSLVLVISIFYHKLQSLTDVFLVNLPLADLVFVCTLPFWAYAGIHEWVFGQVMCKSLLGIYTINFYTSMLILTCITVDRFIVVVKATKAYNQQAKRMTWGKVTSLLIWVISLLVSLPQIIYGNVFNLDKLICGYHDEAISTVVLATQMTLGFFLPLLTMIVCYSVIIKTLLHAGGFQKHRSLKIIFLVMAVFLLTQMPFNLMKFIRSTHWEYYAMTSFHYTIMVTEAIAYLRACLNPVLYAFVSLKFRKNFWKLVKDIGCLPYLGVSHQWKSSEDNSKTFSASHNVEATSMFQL", "assay": "Migration of CHO-K1 cells expressing CXCR6", "conditions": "CHO-K1 cells expressing CXCR6, 2 hours; FIG. 3", "description": "as §1, §2, §3"}}, "data": [{"compound": "CC(C)(C)c1cc(/C=[N+](\\[O-])C(C)(C)C)cc(C(C)(C)C)c1O", "note": "[Compound 1, α-(4-hydroxy-3,5-di-tert-butylphenyl)-N-tert-butylnitrone]", "values": [{"measurement": "induction of cell migration", "setting": "FMLP receptor", "result": "did not induce migration"}, {"measurement": "induction of cell migration", "setting": "CXCR1", "result": "induced migration"}, {"measurement": "induction of cell migration", "setting": "CXCR3", "result": "induced migration"}, {"measurement": "induction of cell migration", "setting": "CXCR2", "result": "induced migration"}, {"measurement": "induction of cell migration", "setting": "CXCR6", "result": "induced migration"}]}]}
